The subject of the assay is BALB/c mice. Put plainly: In vivo expression of hEPO after IM injection of LNP formulations in BALB/c mice. The conditions noted are these: lipid nanoparticles with hEPO mRNA, Cationic Lipid, DMG-PEG2000, Cholesterol and DOPE; single intramuscular injection into gastrocnemius muscle, 0.1 ug; male BALB/c mice; 6 hours post-dose; ELISA; FIG. 1. As for the experimental part:
FIG. 1 depicts in vivo protein production resulting from the delivery of mRNA using lipid nanoparticles comprising Compound 30 as described herein.
Lipid nanoparticle formulations comprising human erythropoietin (hEPO) mRNA, Cationic Lipid, DMG-PEG2000, Cholesterol and DOPE were administered intramuscularly to study mRNA delivery and resultant hEPO expression. Male BALB/c mice at 6-8 weeks old are given a single injection of the LNP formulations into the gastrocnemius muscle at a dosage level of 0.1 ug. Blood samples were collected at 6 hours post-dose, hEPO protein expression levels were measured in the sera samples by ELISA and presented in FIG. 1.
A general note: An ELISA detects its analyte on a solid surface through an enzyme-linked reagent.

As for `CCCCCCCCCCC(O)CN(CCCC(=O)SCCCCSC(=O)CCCN(CC(O)CCCCCCCCCC)CC(O)CCCCCCCCCC)CC(O)CCCCCCCCCC` (stereo not shown) [Compound 30], the “hEPO protein expression levels in sera (in vivo protein production)” value was “high levels of in vivo protein production”.

The values are drawn from US20220233444A1, “THIOESTER CATIONIC LIPIDS” (Translate Bio, Inc., priority 2019, published 2022).
